Key:
[1] = biological target: D(2) dopamine receptor (Homo sapiens, UniProt P14416); experiment: biochemical
Description: Binding affinity for human dopamine receptor D2 by displacing [125I]iodosulpiride expressed in CHO cells

[2] = biological target: T1, D(3) dopamine receptor (Homo sapiens, UniProt P35462); experiment: biochemical
Target sequence in this assay (P35462 whole entry): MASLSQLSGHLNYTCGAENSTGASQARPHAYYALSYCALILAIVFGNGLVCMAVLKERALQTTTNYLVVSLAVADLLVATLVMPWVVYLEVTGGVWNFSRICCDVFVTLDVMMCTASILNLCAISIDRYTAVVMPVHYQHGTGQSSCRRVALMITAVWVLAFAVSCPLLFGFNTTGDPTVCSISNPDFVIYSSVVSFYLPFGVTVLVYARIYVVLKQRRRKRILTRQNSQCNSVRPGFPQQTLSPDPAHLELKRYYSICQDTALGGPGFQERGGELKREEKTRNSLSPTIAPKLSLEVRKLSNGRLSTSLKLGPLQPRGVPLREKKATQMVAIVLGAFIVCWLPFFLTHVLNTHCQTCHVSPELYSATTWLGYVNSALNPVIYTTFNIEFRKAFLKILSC
Description: Binding affinity for human dopamine receptor D3 by displacing [125I]iodosulpiride expressed in CHO cells

[3] = biological target: T1, D(3) dopamine receptor; experiment: Effective concentration for Dopamine receptor D3 was determined; type: functional
Target sequence in this assay (P35462 whole entry, looked up): as the sequence (P35462 whole entry) above

[4] = biological target: D(3) dopamine receptor (Homo sapiens); experiment: Effective concentration for Dopamine receptor D3 was determined
[5] = tested on: D(3) dopamine receptor (Homo sapiens); experiment: Intrinsic activity for Dopamine receptor D3 was determined

D(2) dopamine receptor, sequence (P14416 whole entry): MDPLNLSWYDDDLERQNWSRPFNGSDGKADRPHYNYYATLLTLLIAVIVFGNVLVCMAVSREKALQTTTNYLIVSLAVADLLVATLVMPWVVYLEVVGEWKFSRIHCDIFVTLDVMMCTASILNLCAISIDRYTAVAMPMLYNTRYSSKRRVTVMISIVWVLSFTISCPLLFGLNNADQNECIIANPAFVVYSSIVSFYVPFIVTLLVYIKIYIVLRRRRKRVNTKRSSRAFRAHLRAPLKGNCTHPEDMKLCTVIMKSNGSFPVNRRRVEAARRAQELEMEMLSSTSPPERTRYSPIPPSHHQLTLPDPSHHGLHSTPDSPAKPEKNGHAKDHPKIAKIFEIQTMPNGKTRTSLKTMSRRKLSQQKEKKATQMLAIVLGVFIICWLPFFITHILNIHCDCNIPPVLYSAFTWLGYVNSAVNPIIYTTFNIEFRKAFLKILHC

Row | Ki [1] | Ki [2] | EC50 [3] | EC50 [4] | Intrinsic activity [5] | SMILES
1 | 630 nM | 700 nM | – | – | – | COc1ccccc1N1CCN(C2CC3CC(N4CCN(c5ccccc5OC)CC4)CC3C2)CC1 (centres undefined)
2 | 12 nM | 0.38 nM | – | – | – | COc1ccc(/C=C/C(=O)NCCCCN2CCN(c3ccccc3OC)CC2)cc1
3 | 23.7 nM | 0.43 nM | – | – | – | COc1ccccc1N1CCN(CCCCNC(=O)/C=C/c2ccc(Br)cc2)CC1
4 | 45 nM | 100 nM | – | – | – | COc1ccccc1N1CCN(Cc2cccc(CNC(=O)c3ccc4ccccc4c3)c2)CC1
5 | 27.5 nM | 1.48 nM | 2.5 nM | – | – | COc1ccccc1N1CCN(CCCCNC(=O)c2cc3ccccc3cn2)CC1
6 | 11.5 nM | 0.73 nM | – | – | – | COc1ccccc1N1CCN(CCCCNC(=O)/C=C/c2ccc(C=O)cc2)CC1
7 | 28.4 nM | 750 nM | – | – | – | COc1ccccc1N1CCN(Cc2ccccc2CNC(=O)c2ccc3ccccc3c2)CC1
8 | 50.2 nM | 4.1 nM | – | – | – | COc1ccccc1N1CCN(CCCCNC(=O)/C=C/c2cccc(C(F)(F)F)c2)CC1
9 | 200 nM | 40 nM | – | – | – | COc1ccccc1N1CCN(Cc2ccc(CNC(=O)c3ccc4ccccc4c3)cc2)CC1
10 | 19.5 nM | 0.5 nM | – | – | – | COc1ccccc1N1CCN(CCCCNC(=O)c2ccc(Cl)cc2)CC1
11 | – | 2.85 nM | – | – | – | COc1ccccc1N1CCN(CCCCNC(=O)c2ccc(-c3ccccc3)cc2)CC1
12 | 235 nM | 300 nM | – | – | – | COc1ccccc1N1CCN(CCCNC(=O)c2cccc(I)c2)CC1
13 | 23 nM | 1.31 nM | – | – | – | COc1ccccc1N1CCN(CCCCNC(=O)/C=C/c2ccc(Cl)c(Cl)c2)CC1
14 | 76.4 nM | 0.5 nM | – | – | – | COc1ccccc1N1CCN(CCCCNC(=O)/C=C/c2ccc(I)cc2)CC1
15 | 15 nM | 0.52 nM | – | – | – | COc1ccccc1N1CCN(CCCCNC(=O)/C=C/c2ccccc2Cl)CC1
16 | 22.6 nM | 0.44 nM | 10 nM | – | – | COc1ccccc1N1CCN(CCCCNC(=O)/C=C/c2ccc(Cl)cc2)CC1
17 | 20.7 nM | 0.69 nM | – | – | – | COc1ccccc1N1CCN(CCCCNC(=O)/C=C/c2ccc(F)cc2)CC1
18 | 23 nM | 1.8 nM | – | – | – | COc1ccccc1N1CCN(CCCCNC(=O)c2cc3ccccc3oc2=O)CC1
19 | 71.9 nM | 6.7 nM | – | – | – | COc1ccccc1N1CCN(CCCCNC(=O)c2sc3ccccc3c2Cl)CC1
20 | 14 nM | 0.56 nM | – | – | – | COc1ccccc1/C=C/C(=O)NCCCCN1CCN(c2ccccc2OC)CC1
21 | 20 nM | 0.46 nM | – | – | – | COc1ccccc1N1CCN(CCCCNC(=O)/C=C/c2cccc(Cl)c2)CC1
22 | 330 nM | 320 nM | – | – | – | COc1ccccc1N1CCN(CCCCN2C(=O)C=C(c3ccccc3)C2=O)CC1
23 | 128 nM | 10.2 nM | – | – | – | COc1ccccc1N1CCN(CCCCNC(=O)/C=C/c2ccc(C(C)(C)C)cc2)CC1
24 | 56 nM | 42 nM | – | – | – | COc1ccccc1N1CCN(CCCCNC(=O)C2(c3ccc(Cl)cc3)CCCC2)CC1
25 | 15.2 nM | 7.8 nM | – | – | – | COc1ccccc1N1CCN(CCCCNC(=O)c2ccccc2I)CC1
26 | 146 nM | 3.9 nM | – | 1.2 nM | 0.5 | COc1ccccc1N1CCN(CCCCNC(=O)c2ccc(I)cc2)CC1
27 | 21 nM | 1.28 nM | – | – | – | COc1ccccc1N1CCN(CCCCNC(=O)/C=C/c2ccc(Cl)cc2Cl)CC1
28 | 18 nM | 325 nM | – | – | – | COc1ccccc1N1CCN(Cc2ccccc2CNC(=O)/C=C/c2ccccc2)CC1
29 | 145 nM | 23.3 nM | – | – | – | COc1ccccc1N1CCN(CCCCN2C(=O)c3cc4ccccc4cc3C2=O)CC1

Second part, the compound before the results:

Row | SMILES | Ki [1] | Ki [2] | EC50 [3] | EC50 [4] | Intrinsic activity [5]
30 | COc1ccccc1N1CCN(CCCNC(=O)Cc2ccc3ccccc3c2)CC1 | 56 nM | 140 nM | – | – | –
31 | COc1ccccc1N1CCN(CCCCNC(=O)/C=C/c2ccc3ccccc3c2)CC1 | 32 nM | 0.68 nM | – | – | –
32 | COc1ccccc1N1CCN(CCCCNC(=O)/C=C/c2cccs2)CC1 | 9.5 nM | 0.59 nM | – | – | –
33 | COc1ccccc1N1CCN(CCCCNC(=O)/C=C/c2ccc(OCc3ccccc3)cc2)CC1 | 32 nM | 19.5 nM | – | – | –
34 | COc1ccccc1N1CCN(CCCCNC(=O)CCc2ccccc2)CC1 | 48.7 nM | 4.8 nM | – | – | –
35 | COc1ccccc1N1CCN(CCCCNC(=O)/C=C/c2ccc(/C=C/C(=O)NCCCCN3CCN(c4ccccc4OC)CC3)cc2)CC1 | 7.2 nM | 3.6 nM | – | – | –
36 | COc1ccccc1N1CCN(CCCCNC(=O)/C=C/c2ccco2)CC1 | 11.1 nM | 0.6 nM | – | – | –
37 | COc1ccccc1N1CCN(CCCCNC(=O)/C=C/c2ccc(Oc3ccccc3)cc2)CC1 | 65.2 nM | 10.1 nM | – | – | –
38 | COc1ccccc1N1CCN(CCCCNC(=O)/C=C/c2ccccc2I)CC1 | 63 nM | 0.75 nM | – | – | –
39 | COc1ccccc1N1CCN(CCCCNC(=O)/C=C/c2ccc(C(F)(F)F)cc2)CC1 | 36.8 nM | 2.14 nM | – | – | –
40 | COc1ccccc1N1CCN(CCCCNC(=O)/C=C/c2ccc3c(c2)OCO3)CC1 | 10.3 nM | 1 nM | – | – | –
41 | COc1ccccc1N1CCN(CCCNC(=O)Cc2cccc3ccccc23)CC1 | 44 nM | 108 nM | – | – | –
42 | COc1ccccc1N1CCN(CCCCNC(=O)c2cccc(I)c2)CC1 | 68 nM | 9.2 nM | – | – | –
43 | COc1ccccc1N1CCN(C2CC3CC(NC4CC5CC(N6CCN(c7ccccc7OC)CC6)CC5C4)CC3C2)CC1 (centres undefined) | 103 nM | 358 nM | – | – | –
44 | COc1ccccc1N1CCN(CCCCNC(=O)c2ccc(-c3ccc(Cl)cc3)o2)CC1 | 200 nM | 6.3 nM | – | – | –
45 | COc1ccccc1N1CCN(CCCNC(=O)c2ccc(I)cc2)CC1 | 117 nM | 396 nM | – | – | –
46 | COc1ccccc1N1CCN(CCCCNC(=O)/C=C/c2cc(I)c(OC)c(OC)c2)CC1 | 38.5 nM | 14.9 nM | – | – | –
47 | COc1ccccc1N1CCN(CCCCNC(=O)c2ccc(C(=O)c3ccccc3)cc2)CC1 | 63 nM | 2.5 nM | – | – | –
48 | COc1ccccc1N1CCN(CCCCNC(=O)/C=C/c2cccnc2)CC1 | 14.5 nM | 0.5 nM | – | – | –
49 | COc1ccccc1N1CCN(CCCCNC(=O)c2coc3ccccc3c2=O)CC1 | 47 nM | 3.3 nM | – | – | –
50 | COc1ccccc1N1CCN(CCCCNC(=O)c2cccc3c2-c2ccccc2C3=O)CC1 | 18 nM | 2.96 nM | – | – | –

Row | SMILES | Ki [1] | Ki [2] | EC50 [3] | EC50 [4] | Intrinsic activity [5]
51 | COc1ccccc1N1CCN(CCCCN2C(=O)c3ccccc3C2=O)CC1 | 50 nM | 38 nM | – | – | –
52 | COc1ccccc1N1CCN(CCCCNC(=O)c2nccc3ccccc23)CC1 | 20.9 nM | 9.62 nM | – | – | –
53 | COc1ccccc1N1CCN(C2CC3CC(NC(=O)c4ccc5ccccc5c4)CC3C2)CC1 (centres undefined) | 178 nM | 37.2 nM | – | – | –
54 | COc1ccccc1N1CCN(CCCCNC(=O)/C=C/c2cccc(I)c2)CC1 | 161 nM | 1.2 nM | – | – | –
55 | COc1ccccc1N1CCN(CCCCNC(=O)c2ccc(C(C)(C)C)cc2)CC1 | 26.5 nM | 7.99 nM | – | – | –
56 | COc1ccccc1N1CCN(CCCCNC(=O)/C=C/C=C/c2ccccc2)CC1 | 19 nM | 1.5 nM | – | – | –
57 | COc1ccccc1N1CCN(CCCCNC(=O)c2ccc(C(C)=O)cc2)CC1 | 17.5 nM | 1 nM | – | – | –
58 | COc1ccccc1N1CCN(CCCCNC(=O)/C=C/c2ccc([N+](=O)[O-])cc2)CC1 | 14 nM | 0.74 nM | – | – | –
59 | COc1ccccc1N1CCN(CCCCNC(=O)/C=C/c2cccc(Oc3ccccc3)c2)CC1 | 114 nM | 19.5 nM | – | – | –
60 | COc1ccccc1N1CCN(CCCCNC(=O)/C=C/c2cccc3c2OCO3)CC1 | 8 nM | 0.55 nM | – | – | –
61 | COc1ccccc1N1CCN(CCCCNC(=O)/C=C/c2ccccc2)CC1 | 13.5 nM | 0.33 nM | – | – | –
62 | COc1ccccc1N1CCN(CCCCNC(=O)/C=C/c2ccc(C#N)cc2)CC1 | 10 nM | 0.46 nM | – | – | –
63 | COc1ccccc1N1CCN(CCCCNC(=O)C2CC2c2ccccc2)CC1 (centres undefined) | 81 nM | 15.5 nM | – | – | –
64 | COc1ccccc1N1CCN(CCCCNC(=O)/C=C/c2ccsc2)CC1 | 13 nM | 0.64 nM | – | – | –
65 | COc1ccccc1N1CCN(CCCCN2C(=O)c3cccc4cccc(c34)C2=O)CC1 | 40 nM | 29 nM | – | – | –
66 | COc1ccccc1N1CCN(CCCCNC(=O)/C=C/c2ccc(-c3ccccc3)cc2)CC1 | 37 nM | 16 nM | – | – | –
67 | COc1ccc2cc([C@H](C)C(=O)NCCCN3CCN(c4ccccc4OC)CC3)ccc2c1 | 94.6 nM | 262 nM | – | – | –
68 | COc1ccccc1N1CCN(CCCNC(=O)c2ccccc2I)CC1 | 126 nM | 213 nM | – | – | –
69 | COc1ccccc1N1CCN(CCCCNC(=O)c2ccc3ccccc3n2)CC1 | – | 6.6 nM | – | – | –
70 | COc1ccccc1N1CCN(CCCCNC(=O)Cc2ccc3ccccc3c2)CC1 | 35 nM | 32 nM | – | – | –
71 | COc1ccccc1N1CCN(CCCN2C(=O)c3ccccc3C2=O)CC1 | 300 nM | 560 nM | – | – | –

Source: ChEMBL document CHEMBL1144878, “N-(omega-(4-(2-methoxyphenyl)piperazin-1-yl)alkyl)carboxamides as dopamine D2 and D3 receptor ligands” (J Med Chem, 2003)
